# Reference: paper PMC7356696, “Synthesis, Antimicrobial Activity and Molecular Docking of Novel Thiourea Derivatives Tagged with Thiadiazole, Imidazole and Triazine Moieties as Potential DNA Gyrase and Topoisomerase IV Inhibitors” (Molecules, 2020)
# Where two headings read alike, the source gives them in different places.
# What was measured:
# [1] = MTT assay for cytotoxic activity; format: cell-based; conditions: African green monkey, Vero cells (normal kidney epithelial cell line), read-out: IC50 (Mean ± SEM), cytotoxic activity
# Description: (§1) The results are expressed as IC50 values (µM) and are depicted in Table 3.
# [2] = tested on: human breast cancer (MCF-7) cells; test: MTT assay for cytotoxic activity; format: cell-based; conditions: read-out: IC50 (Mean ± SEM), cytotoxic activity
# Description: as §1
# [3] = tested on: Staphylococcus aureus ATCC 29213; test: Agar well diffusion, inhibition zone; format: cell-based; set-up: dose or concentration left out as unconfirmed; conditions: ATCC29213, S. aureus ATCC 29213, NA = No Activity, read-out: Mean Diameter of Inhibition Zone (Mean ± SEM)
# Description: (§2) The antimicrobial activity of all synthesized compounds 2–13 was screened against a panel of two Gram-positive bacteria (Staphylococcus aureus ATCC 29213 and Bacillus subtilis ATCC 6633), two Gram-negative bacteria (Escherichia coli ATCC 25922, Pseudomonas aeruginosa ATCC 27853) and two fungi (Candida albicans ATCC 10231 and Aspergillus flavus ATCC 46283) using the agar well diffusion method. Ciprofloxacin and clotrimazole were used as antibacterial and antifungal standards, respectively. The results of this study were recorded as the average diameter of the inhibition zones (IZ) in Table 1. […] Additionally, the promising activity against S. aureus was observed from compounds 9, 12 and 13, however against B. subtilis from compounds 12 and 13.
# (§3) The antimicrobial assay was performed in vitro for the target compounds 2–13 against Staphylococcus aureus ATCC 29213, Bacillus subtilis ATCC 6633 as Gram-positive bacteria, Escherichia coli ATCC 25922, Pseudomonas aeruginosa ATCC 27853 as Gram-negative bacteria and Candida albicans ATCC 10231, Aspergillus flavus ATCC 46283 as fungi. At the first, 100 μL of the test bacteria/fungi were grown in 10 mL of fresh media until they reached a count of approximately 10^8 cells/ml for bacteria or 10^5 cells/mL for fungi. […] The plates were incubated for 24 h at 37 °C (for bacteria and yeast) and for 72 h at 27 °C (for filamentous fungi), each test was repeated three times. After incubation, the microorganism’s growth was observed. Ciprofloxacin and clotrimazole were used as standard antibacterial and antifungal drugs, respectively. The resulting inhibition zone diameters were measured in millimeters using the diffusion technique. […] The different concentrations (triplicate) of each compound were tested and compared with standard drugs.
# [4] = tested on: Bacillus subtilis ATCC 6633; test: Agar well diffusion, inhibition zone; format: cell-based; set-up: dose or concentration left out as unconfirmed; conditions: ATCC6633, B. subtilis ATCC 6633, NA = No Activity, read-out: Mean Diameter of Inhibition Zone (Mean ± SEM)
# Description: as §2, §3
# [5] = tested on: Aspergillus flavus ATCC 46283; test: Agar well diffusion, inhibition zone; format: cell-based; set-up: dose or concentration left out as unconfirmed; conditions: ATCC46283, A. flavus ATCC 46283, NA = No Activity, read-out: Mean Diameter of Inhibition Zone (Mean ± SEM)
# Description: as §2
# (§4) The antimicrobial assay was performed in vitro for the target compounds 2–13 against Staphylococcus aureus ATCC 29213, Bacillus subtilis ATCC 6633 as Gram-positive bacteria, Escherichia coli ATCC 25922, Pseudomonas aeruginosa ATCC 27853 as Gram-negative bacteria and Candida albicans ATCC 10231, Aspergillus flavus ATCC 46283 as fungi. At the first, 100 μL of the test bacteria/fungi were grown in 10 mL of fresh media until they reached a count of approximately 10^8 cells/ml for bacteria or 10^5 cells/mL for fungi. […] of each sample (at 0.5 mg/mL) was added to each well (10 mm diameter holes cut in the agar gel). The plates were incubated for 24 h at 37 °C (for bacteria and yeast) and for 72 h at 27 °C (for filamentous fungi), each test was repeated three times. After incubation, the microorganism’s growth was observed. Ciprofloxacin and clotrimazole were used as standard antibacterial and antifungal drugs, respectively. The resulting inhibition zone diameters were measured in millimeters using the diffusion technique. […] The different concentrations (triplicate) of each compound were tested and compared with standard drugs.
# [6] = tested on: Pseudomonas aeruginosa ATCC 27853; test: Agar well diffusion, inhibition zone; format: cell-based; set-up: dose or concentration left out as unconfirmed; conditions: ATCC27853, P. aeruginosa ATCC 27853, NA = No Activity, read-out: Mean Diameter of Inhibition Zone (Mean ± SEM)
# Description: as §2, §4
# [7] = tested on: Candida albicans ATCC 10231; test: Agar well diffusion, inhibition zone; format: cell-based; set-up: dose or concentration left out as unconfirmed; conditions: ATCC10231, C. albicans ATCC 10231, NA = No Activity, read-out: Mean Diameter of Inhibition Zone (Mean ± SEM)
# Description: as §2, §4
# [8] = tested on: Staphylococcus aureus ATCC 29213; test: MIC, modified agar well diffusion method; format: cell-based; conditions: ATCC29213, S. aureus ATCC 29213, read-out: MIC (Mean ± SEM)
# Description: as §2, §4
# [9] = tested on: Aspergillus flavus ATCC 46283; test: MIC, modified agar well diffusion method; format: cell-based; conditions: ATCC46283, A. flavus ATCC 46283, read-out: MIC (Mean ± SEM)
# Description: as §2, §4
# [10] = tested on: Pseudomonas aeruginosa ATCC 27853; test: MIC, modified agar well diffusion method; format: cell-based; conditions: ATCC27853, P. aeruginosa ATCC 27853, read-out: MIC (Mean ± SEM)
# Description: as §2, §4
# [11] = tested on: Candida albicans ATCC 10231; test: MIC, modified agar well diffusion method; format: cell-based; conditions: ATCC10231, C. albicans ATCC 10231, read-out: MIC (Mean ± SEM)
# Description: as §2, §4
# [12] = tested on: Bacillus subtilis ATCC 6633; test: MIC, modified agar well diffusion method; format: cell-based; conditions: ATCC6633, B. subtilis ATCC 6633, read-out: MIC (Mean ± SEM)
# Description: as §2, §4
# [13] = tested on: Escherichia coli ATCC 25922; test: Agar well diffusion, inhibition zone; format: cell-based; set-up: dose or concentration left out as unconfirmed; conditions: ATCC25922, E. coli ATCC 25922, NA = No Activity, read-out: Mean Diameter of Inhibition Zone (Mean ± SEM)
# Description: as §2, §4
# [14] = tested on: Escherichia coli ATCC 25922; test: MIC, modified agar well diffusion method; format: cell-based; conditions: ATCC25922, E. coli ATCC 25922, read-out: MIC (Mean ± SEM)
# Description: as §2, §4
# [15] = target: T1, dihydrofolate reductase (DHFR) (Homo sapiens, UniProt P00374); set-up: method as in PMID 23792351; conditions: cited from earlier work
# T1 construct: purchased Bio Vision
# T1 sequence (P00374 1-187): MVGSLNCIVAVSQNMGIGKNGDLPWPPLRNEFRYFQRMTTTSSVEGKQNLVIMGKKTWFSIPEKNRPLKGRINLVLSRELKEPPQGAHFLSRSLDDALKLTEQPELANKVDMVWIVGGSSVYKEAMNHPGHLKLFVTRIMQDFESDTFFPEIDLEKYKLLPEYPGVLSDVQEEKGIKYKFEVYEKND
# [16] = tested on: Staphylococcus aureus DNA gyrase; set-up: method as in PMID 25792505; conditions: cited from earlier work
# [17] = Homo sapiens, MCF7, MCF-7 cells
SMILES,IC50 [1],"IC50 [2, 17]",zone of inhibition [3],zone of inhibition [4],zone of inhibition [5],zone of inhibition [6],zone of inhibition [7],MIC [8],MIC [9],MIC [10],MIC [11],MIC [12],zone of inhibition [13],MIC [14],fold more active than the positive control methotrexate as DHFR inhibitor [15],IC50 [16],IC50 ([2]; MCF-7 cells)
"O=c1cc2nc(Cc3ccccc3)[nH]c(=S)n2[nH]1 [Compound 9, 2-Benzyl-3,4-dihydro-4-thioxopyrazolo[1,5-a][1,3,5]triazin-7(6H)-one]",62.45 ± 0.2 µM,26.4 ± 0.46 µM,21 ± 0.3 mm,18 ± 0.25 mm,15 ± 0.33 mm,9 ± 0.25 mm,9 ± 0.2 mm,9.92 ± 0.3 µg/mL,20.4 ± 0.3 µg/mL,17.6 ± 0.2 µg/mL,94 ± 0.1 µg/mL,8.6 ± 0.25 µg/mL,,,,,
"Clc1ccccc1C(c1ccccc1)(c1ccccc1)n1ccnc1 [Clotrimazole, reference compound]",,,,,25 ± 0.4 mm,,27 ± 0.21 mm,,4.25 ± 0.05 µg/mL,,12.5 ± 0.15 µg/mL,,,,,,
"O=C(Cc1ccccc1)NC(=S)NN1C(=O)C(=Cc2ccccc2)N=C1c1ccccc1 [Compound 6, 1-(4-Benzylidene-4,5-dihydro-5-oxo-2-phenylimidazol-1-yl)-3-(2-phenylacetyl)thiourea]",122.8 ± 0.4 µM,23.7 ± 0.96 µM,27 ± 0.2 mm,30 ± 0.26 mm,9 ± 0.03 mm,21 ± 0.26 mm,6 ± 0.22 mm,5.12 ± 0.05 µg/mL,26.2 ± 0.03 µg/mL,2.48 ± 0.11 µg/mL,91 ± 0.02 µg/mL,2.29 ± 0.05 µg/mL,12 ± 0.1 mm,7.8 ± 0.1 µg/mL,,,
"CCOC(=O)CNC(=S)NC(=O)Cc1ccccc1 [Compound 2, Ethyl ((2-phenylacetyl)carbonothionyl)glycinate]",,,9 ± 0.61 mm,,,,,,,,,,,,,,
"O=C(Cc1ccccc1)NC(=S)N1NC(=O)C(=Cc2ccccc2)N=C1c1ccccc1 [Compound 12, 5-Benzylidene-5,6-dihydro-N-(1-hydroxy-2-phenylethylidene)-6-oxo-3-phenyl-1,2,4-triazine-2(1H)-carbothioamide]",79.19 ± 0.28 µM,35.9 ± 0.85 µM,22 ± 0.05 mm,23 ± 0.01 mm,18 ± 0.03 mm,17 ± 0.2 mm,14 ± 0.21 mm,5.22 ± 0.03 µg/mL,15.6 ± 0.01 µg/mL,12.5 ± 0.2 µg/mL,85 ± 0.15 µg/mL,2.3 ± 0.05 µg/mL,5 ± 0.58 mm,27 ± 0.02 µg/mL,,,
"O=C(Cc1ccccc1)Nc1nnc(C(=Cc2cccs2)NC(=O)c2ccccc2)s1 [Compound 13, N-(1-(5-(2-Phenylacetamido)-1,3,4-thiadiazol-2-yl)-2-(thiophen-2-yl)vinyl)benzamide]",84.11 ± 0.32 µM,37.7 ± 0.93 µM,21 ± 0.1 mm,24 ± 1.11 mm,18 ± 0.22 mm,15 ± 0.11 mm,12 ± 0.46 mm,5.6 ± 0.15 µg/mL,14.6 ± 0.2 µg/mL,13.41 ± 0.1 µg/mL,83 ± 0.22 µg/mL,2.72 ± 1.11 µg/mL,6 ± 0.15 mm,33 µg/mL,,,
"O=C(Cc1ccccc1)NC(=S)NNC(=O)C(=Cc1ccccc1)NC(=O)c1ccccc1 [Compound 7a, 1-(2-Benzamido-3-phenylacryloyl)-4-phenylacetylthiosemicarbazide]",149.1 ± 0.21 µM,10.2 ± 0.65 µM,30 ± 0.22 mm,33 ± 0.5 mm,24 ± 0.02 mm,27 ± 0.03 mm,15 ± 0.3 mm,4.15 ± 0.22 µg/mL,5.21 ± 0.11 µg/mL,2.81 ± 0.01 µg/mL,64 ± 0.41 µg/mL,1.39 ± 0.5 µg/mL,18 ± 0.22 mm,4.22 ± 0.12 µg/mL,,,
"N=c1oc2ccccc2cc1-c1nnc(NC(=O)Cc2ccccc2)s1 [Compound 11, N-(5-(2-Imino-2H-chromen-3-yl)-1,3,4-thiadiazol-2-yl)-2-phenylacetamide]",,,12 ± 0.3 mm,6 ± 0.53 mm,,,,,,,,,,,,,
COc1ccc(NC(=S)Nc2nc(-c3nnc(S)n3-c3ccc(OC)cc3OC)cs2)c(OC)c1 [V],,,,,,,,,,,,,,,2.7 fold,,
"N#CCc1nnc(NC(=O)Cc2ccccc2)s1 [Compound 10, N-(5-(Cyanomethyl)-1,3,4-thiadiazol-2-yl)-2-phenylacetamide]",,,15 ± 0.42 mm,12 ± 0.21 mm,6 ± 0.41 mm,6 ± 0.02 mm,,,,,,,,,,,
"O=C(O)c1cn(C2CC2)c2cc(N3CCNCC3)c(F)cc2c1=O [Ciprofloxacin, reference compound]",,,24 ± 0.6 mm,23 ± 0.2 mm,,23 ± 0.9 mm,,5.85 ± 0.13 µg/mL,,2.9 ± 0.04 µg/mL,,2.9 ± 0.02 µg/mL,26 ± 0.25 mm,2.9 ± 0.25 µg/mL,,,
Cc1occc1C(=O)NNC(=S)NC(=O)c1ccccc1 [I],,,,,,,,,,,,,,,,14.6 µM,
"O=C(Cc1ccccc1)NC(=S)NNC(=O)C(=Cc1cccs1)NC(=O)c1ccccc1 [Compound 7b, 1-(2-Benzamido-3-(thiophen-2-yl)acryloyl)-4-phenylacetylthiosemicarbazide]",133.3 ± 0.4 µM,11.6 ± 0.59 µM,33 ± 0.01 mm,35 ± 0.26 mm,25 ± 0.15 mm,26 ± 0.21 mm,16 ± 0.12 mm,3.9 ± 0.26 µg/mL,5.7 ± 0.01 µg/mL,2.72 ± 0.15 µg/mL,76 ± 0.31 µg/mL,1.46 ± 0.1 µg/mL,18 ± 0.41 mm,4.68 ± 0.13 µg/mL,,,11.6 ± 0.59 µM
